From patent US12514800B2, “Personal and home care compositions comprising fatty acids from tung seed oil as antimicrobial preservative” (GALAXY SURFACTANTS LTD., priority 2020, dated 2026)

Experiment: UV absorption (E1% 1 cm)
Type: physicochemical
Details: at the λmax printed in Table 1 (290 nm fatty acids; 305 nm Homosalate, Octyl salicylate)
Excerpt: Personal care composition comprising fatty acids, as obtained synthetically from Tung seed oil by aforementioned process, have good UV absorbing activity arising from the conjugated system of the fatty acids and is evident from its value of E1% lcm which is 1600 at 270 nm and 360 at 290 nm. In view of incorporation of the fatty acids in the personal care composition, not only the ingredients of the formulations are protected but also the skin and hair are protected from the ravages of solar radiation when the formulations are applied. […] The same is evident from the values of E1% lcm which is 360 at 290 nm (FIG. 2). UV B radiation of solar spectrum is the most damaging since it causes skin cancer.

E1%, 1 cm: 180
SMILES: CC1CC(OC(=O)c2ccccc2O)CC(C)(C)C1 (stereo not shown) [Homosalate]
